Holding throughout (type): biochemical
The target of test [1] is T1, prolyl oligo peptidase (POP) (Homo sapiens, UniProt P48147).
T1 construct: purchased BPS Bioscience 80105
T1 sequence (P48147 1-710): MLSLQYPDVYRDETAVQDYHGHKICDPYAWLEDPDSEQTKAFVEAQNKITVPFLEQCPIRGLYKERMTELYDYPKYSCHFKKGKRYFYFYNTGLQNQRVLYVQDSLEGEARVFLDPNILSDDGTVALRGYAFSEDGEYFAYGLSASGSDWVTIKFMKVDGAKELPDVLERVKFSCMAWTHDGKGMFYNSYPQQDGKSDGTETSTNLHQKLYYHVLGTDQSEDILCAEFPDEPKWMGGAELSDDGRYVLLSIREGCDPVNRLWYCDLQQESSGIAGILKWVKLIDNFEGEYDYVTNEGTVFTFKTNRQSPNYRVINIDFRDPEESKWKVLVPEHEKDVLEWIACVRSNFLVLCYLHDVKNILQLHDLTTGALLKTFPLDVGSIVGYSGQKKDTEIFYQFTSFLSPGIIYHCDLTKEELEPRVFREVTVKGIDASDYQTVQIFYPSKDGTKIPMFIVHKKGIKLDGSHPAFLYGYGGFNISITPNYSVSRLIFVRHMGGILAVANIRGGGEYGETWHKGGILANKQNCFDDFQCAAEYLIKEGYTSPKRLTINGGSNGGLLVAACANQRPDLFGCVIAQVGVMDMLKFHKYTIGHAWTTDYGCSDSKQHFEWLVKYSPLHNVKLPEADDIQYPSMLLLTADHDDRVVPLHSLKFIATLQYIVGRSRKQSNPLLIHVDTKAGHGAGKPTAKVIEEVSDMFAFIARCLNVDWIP
The experiment in a line: In vitro fluorescence enzymatic inhibition assay, POP. The following applies: for selectivity for FAP compared to POP: from IC50 values; for IC50: recombinant POP/PREP. How it is done: (§1) Enzymatic inhibition activity and selectivity of OncoFAP derivatives was assessed by employing commercially available in vitro fluorescence assays for FAP, dipeptidyl peptidase 8 (DDP8), and prolyl oligo peptidase (POP) (BPS Bioscience, San Diego, CA, US). The fluorogenic substrate (Fluorogenic DPP substrate 1, Ala-Pro-AMC dipeptide, AMC: 7-amino-4-methylcumaryl) was incubated together with recombinant FAP, DDP, or POP/PREP in the presence or absence of test compounds. The enzymatic activity was correlated with the amount of cleaved fluorescent product measured by fluorescence spectroscopy. IC50 of each test compound was determined from the curves obtained by plotting fluorescence intensities at different concentrations of the inhibitor.
(§2) The synthetic fluorometric DPP substrate 1 (BPS Bioscience, San Diego, CA, USA) Catalog no. […] Reaction rates were measured from the initial 30 min of the reaction profile where product release was linear with time and plotted as a function of inhibitor dose.

The target in a further test is T2, human FAP (Homo sapiens, UniProt Q12884).
T2 construct: purchased BPS Bioscience 80100
T2 sequence (Q12884 1-760): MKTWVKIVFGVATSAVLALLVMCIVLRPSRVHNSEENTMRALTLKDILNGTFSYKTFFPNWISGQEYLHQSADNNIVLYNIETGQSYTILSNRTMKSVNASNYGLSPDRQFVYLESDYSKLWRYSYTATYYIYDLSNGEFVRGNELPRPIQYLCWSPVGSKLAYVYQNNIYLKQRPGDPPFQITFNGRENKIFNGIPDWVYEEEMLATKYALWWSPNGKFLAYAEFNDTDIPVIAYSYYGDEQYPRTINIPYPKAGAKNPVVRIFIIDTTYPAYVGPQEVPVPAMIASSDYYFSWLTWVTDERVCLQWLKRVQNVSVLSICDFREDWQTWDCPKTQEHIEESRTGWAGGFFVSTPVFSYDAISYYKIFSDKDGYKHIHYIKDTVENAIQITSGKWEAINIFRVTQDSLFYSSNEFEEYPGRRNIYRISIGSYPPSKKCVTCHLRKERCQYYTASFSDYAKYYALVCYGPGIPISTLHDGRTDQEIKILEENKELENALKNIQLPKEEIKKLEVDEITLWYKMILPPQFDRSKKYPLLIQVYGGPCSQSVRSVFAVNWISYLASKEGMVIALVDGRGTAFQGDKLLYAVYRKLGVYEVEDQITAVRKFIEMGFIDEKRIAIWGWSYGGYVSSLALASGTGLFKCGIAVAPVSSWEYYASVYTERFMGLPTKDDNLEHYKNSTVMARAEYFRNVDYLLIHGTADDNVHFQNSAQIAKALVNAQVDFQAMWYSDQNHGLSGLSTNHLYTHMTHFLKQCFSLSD
The test can be described thus: In vitro fluorescence enzymatic inhibition assay, FAP. The conditions noted are these: for IC50: recombinant FAP, fluorogenic DPP substrate 1, n = 3. How it is done:
as §1, §2

Test [2] concerns the target T3, dipeptidyl peptidase 8 (DPP8) (Homo sapiens, UniProt Q6V1X1).
T3 construct: purchased BPS Bioscience 80080
The test can be described thus: In vitro fluorescence enzymatic inhibition assay, DPP8. The following applies: for IC50: recombinant DPP8, fluorogenic substrate. How it is done:
as §1, §2

T3 sequence (Q6V1X1 whole entry): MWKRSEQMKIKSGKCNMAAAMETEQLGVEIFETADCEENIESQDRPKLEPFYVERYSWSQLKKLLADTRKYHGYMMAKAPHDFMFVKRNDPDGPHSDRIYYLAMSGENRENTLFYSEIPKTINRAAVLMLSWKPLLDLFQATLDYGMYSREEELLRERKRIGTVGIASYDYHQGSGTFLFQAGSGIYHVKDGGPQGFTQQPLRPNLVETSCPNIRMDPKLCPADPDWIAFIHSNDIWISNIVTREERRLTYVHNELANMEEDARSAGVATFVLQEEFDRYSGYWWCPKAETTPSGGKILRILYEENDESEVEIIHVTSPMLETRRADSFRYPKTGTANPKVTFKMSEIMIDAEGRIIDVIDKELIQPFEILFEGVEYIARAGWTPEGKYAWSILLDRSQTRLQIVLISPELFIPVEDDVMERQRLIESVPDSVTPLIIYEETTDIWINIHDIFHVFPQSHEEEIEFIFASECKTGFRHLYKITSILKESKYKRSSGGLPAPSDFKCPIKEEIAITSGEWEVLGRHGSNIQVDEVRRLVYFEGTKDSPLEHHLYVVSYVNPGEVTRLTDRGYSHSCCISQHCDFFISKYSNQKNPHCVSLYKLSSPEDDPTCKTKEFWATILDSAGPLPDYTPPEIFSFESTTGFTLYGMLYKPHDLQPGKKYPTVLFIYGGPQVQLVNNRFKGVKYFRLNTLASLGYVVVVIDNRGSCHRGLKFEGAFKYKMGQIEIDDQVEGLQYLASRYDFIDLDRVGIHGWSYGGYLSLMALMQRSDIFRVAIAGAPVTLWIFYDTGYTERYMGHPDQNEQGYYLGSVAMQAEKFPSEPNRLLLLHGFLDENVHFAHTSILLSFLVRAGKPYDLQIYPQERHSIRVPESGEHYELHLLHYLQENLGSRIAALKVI

The term IC50 denotes the concentration that inhibits the measured activity by half. On to [^natGa]Ga-FAPI-46 [^natGa-FAPI-46], for which the “selectivity for FAP compared to POP” value in test [1] was > 1000 fold. The IC50 in test [1] is > 10000 nM; at human FAP, 8.37 ± 0.71 nM; in test [2], 10200 ± 3000 nM. Moreover, in test [2] (from IC50 values), the “selectivity for FAP compared to DPP8” value is reported as > 1000 fold.
Consider “[^natGa]Ga-OncoFAP-DOTAGA [^natGa-OncoFAP]”, for which the “selectivity for FAP compared to POP” value in test [1] is 96 fold. Also, the IC50 amounted to 49.2 ± 6.3 nM in test [1] (fluorogenic substrate), 0.51 ± 0.11 nM on human FAP and 6870 ± 111 nM in test [2]. Moreover, the “superior FAP binding potency compared to ^natGa-FAPI-46” value on human FAP (from IC50 values) is on record as “ca. 16 fold”.

These data come from article PMC9016025, “Translational imaging of the fibroblast activation protein (FAP) using the new ligand [^68Ga]Ga-OncoFAP-DOTAGA” (European Journal of Nuclear Medicine and Molecular Imaging, 2021).
